Results published in US11780845B2 (Relay Therapeutics, Inc., priority 2019, dated 2023).

Tests used:
FGFR2 = FGFR2 (Homo sapiens (Human), UniProt P21802); experiment: FGFR2 Biochemical Caliper Assay
Experimental: Compounds of the present invention were also tested in a FGFR2 Biochemical Caliper Assay. Compounds were prepared in 10 mM DMSO solution and serially diluted into 11 concentrations by 3-fold dilution. […] 5 uL of ATP solution (100 uM) was added to start the reaction and the plate was incubated for 90 minutes, then 70 uL of stopping buffer (0.5M EDTA) was added to terminate the reaction. Each well was analyzed using EZ reader.

SNU16 cells = experiment: SNU16 Cancer Cell Line Proliferation Assay; type: cell-based; details: SNU-16 cells
In short: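 Proliferation read-out: CellTiter Glo chemiluminescence after 96 h compound exposure. Test compounds, serially diluted 3-fold over 11 points from a 10 mM DMSO stock, were added to SNU16 cells plated 24 h earlier at 37 degrees.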

Sequence of FGFR2 (P21802 22-821): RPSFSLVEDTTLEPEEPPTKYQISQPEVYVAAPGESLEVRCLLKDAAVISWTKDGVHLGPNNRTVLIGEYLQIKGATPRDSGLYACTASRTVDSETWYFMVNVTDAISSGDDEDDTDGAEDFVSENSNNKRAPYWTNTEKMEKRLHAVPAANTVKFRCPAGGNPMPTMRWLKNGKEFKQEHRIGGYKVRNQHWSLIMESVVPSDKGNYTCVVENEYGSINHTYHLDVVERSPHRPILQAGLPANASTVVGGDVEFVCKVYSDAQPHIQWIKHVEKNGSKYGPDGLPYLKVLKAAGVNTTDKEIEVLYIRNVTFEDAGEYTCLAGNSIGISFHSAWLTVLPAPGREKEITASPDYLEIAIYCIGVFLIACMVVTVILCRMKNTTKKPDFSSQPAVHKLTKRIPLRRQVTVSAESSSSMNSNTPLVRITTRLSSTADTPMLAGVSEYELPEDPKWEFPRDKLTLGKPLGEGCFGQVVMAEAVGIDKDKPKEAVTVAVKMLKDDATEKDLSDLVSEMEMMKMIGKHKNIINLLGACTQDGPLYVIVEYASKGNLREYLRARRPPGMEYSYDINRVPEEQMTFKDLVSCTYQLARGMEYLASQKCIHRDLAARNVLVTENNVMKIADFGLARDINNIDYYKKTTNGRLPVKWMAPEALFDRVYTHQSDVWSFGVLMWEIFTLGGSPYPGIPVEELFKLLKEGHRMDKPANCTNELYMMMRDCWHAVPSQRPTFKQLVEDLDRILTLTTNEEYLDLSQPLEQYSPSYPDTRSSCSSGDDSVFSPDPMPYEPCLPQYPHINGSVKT

Row | SMILES | IC50 (FGFR2) [nM] | IC50 (SNU16 cells; Homo sapiens) [nM] | IC50 (SNU16 cells) [nM]
1 | C=C(C)C(=O)Nc1ccc(-c2c(-c3ccc(C(=O)N4CC5CC5C4)cc3)c3c(N)ncnc3n2C)c(F)c1 (stereo not shown) [Example 487] | < 100 | ≤ 100 | 
2 | C=C(C)C(=O)Nc1ccc(-c2c(-c3ccc(Oc4nccc(C)n4)c(F)c3)c3c(N)ncnc3n2CCO)cc1 [Example 490] | < 100 | ≤ 100 | 
3 | C=C(C)C(=O)Nc1ccc(-c2c(-c3ccc(Oc4nccc(C)n4)c(F)c3)c3c(N)ncnc3n2CC)cc1 [Example 494] | < 100 | ≤ 100 | 
4 | C=C(C)C(=O)Nc1ccc(-c2c(-c3cc(C)c(Oc4nccc(C)n4)c(OC)c3)c3c(N)ncnc3n2C)cc1 [Example 497] | 100 to 250 | ≤ 100 | 
5 | C=C(C)C(=O)Nc1ccc(-c2c(-c3ccc(Oc4nccc(CO)n4)c(F)c3)c3c(N)ncnc3n2C)cc1 [Example 498] | < 100 | ≤ 100 | 
6 | C=C(C)C(=O)Nc1ccc(-c2c(-c3ccc(Oc4nccc(C)n4)c(F)c3)c3c(N)ncnc3n2C)c(COC)c1 [Example 500] | < 100 | ≤ 100 | 
7 | C=C(C)C(=O)Nc1ccc(-c2c(-c3ccc(Oc4nccc(C)n4)c(F)c3)c3c(N)ncnc3n2C)c(OC)c1 [Example 502] | < 100 | ≤ 100 | 
8 | C=C(C)C(=O)Nc1ccc(-c2c(-c3ccc(Oc4nccc(C#N)n4)c(F)c3)c3c(N)ncnc3n2C)cc1 [Example 503] | < 100 | ≤ 100 | 
9 | C=C(C)C(=O)Nc1ccc(-c2c(-c3ccc(Oc4ccnc(C)n4)c(Cl)c3)c3c(N)ncnc3n2C)cc1 [Example 506] | 250 to 1000 | 250 to 1000 | 
10 | C=C(C)C(=O)Nc1ccc(-c2c(-c3ccc(Oc4nccc(COC)n4)c(F)c3)c3c(N)ncnc3n2C)cc1 [Example 511] | < 100 | ≤ 100 | 
11 | C=C(C)C(=O)Nc1ccc(-c2c(-c3ccc(Oc4nccc(C)n4)c(F)c3)c3c(N)ncnc3n2C)c(CO)c1 [Example 513] | < 100 | ≤ 100 | 
12 | C=C(C)C(=O)Nc1ccc(-c2c(-c3ccc(Oc4ncc(F)c(C)n4)c(F)c3)c3c(N)ncnc3n2C)cc1 [Example 515] | < 100 | ≤ 100 | 

The next lines start with the values.

Row | IC50 (FGFR2) [nM] | IC50 (SNU16 cells; Homo sapiens) [nM] | IC50 (SNU16 cells) [nM] | SMILES
13 | < 100 | ≤ 100 |  | C=C(CN(C)C)C(=O)Nc1ccc(-c2c(-c3ccc(Oc4cccc(C)n4)cc3)c3c(N)ncnc3n2C)cc1 [Example 485]
14 | < 100 | ≤ 100 |  | C=C(C)C(=O)Nc1ccc(-c2c(-c3ccc(Oc4cncc(C)n4)c(F)c3)c3c(N)ncnc3n2C)cc1 [Example 492]
15 | < 100 | ≤ 100 |  | C=C(C)C(=O)Nc1ccc(-c2c(-c3ccc(Oc4nccc(C)n4)c(F)c3)c3c(N)ncnc3n2C(C)C)cc1 [Example 499]
16 | < 100 | ≤ 100 |  | C=C(C)C(=O)Nc1ccc(-c2c(-c3ccc(Oc4nccc(C)n4)c(Cl)c3)c3c(N)ncnc3n2C)cc1 [Example 505]
17 | < 100 | ≤ 100 |  | C=C(C)C(=O)Nc1ccc(-c2c(-c3ccc(Oc4nccc(OC)n4)c(F)c3)c3c(N)ncnc3n2C)cc1 [Example 507]
18 | < 100 | ≤ 100 |  | C=C(C)C(=O)Nc1ccc(-c2c(-c3ccc(Oc4nccc(C)n4)c(C#N)c3)c3c(N)ncnc3n2C)cc1 [Example 508]
19 | < 100 | ≤ 100 |  | Cn1c(-c2ccc(NC(=O)C3=CCC3)cc2)c(-c2ccc(C(=O)N3CCCC3)cc2)c2c(N)ncnc21 [Example 512]
20 | < 100 | ≤ 100 |  | C=C(C)C(=O)Nc1ccc(-c2c(-c3ccc(Oc4nccc(C(F)F)n4)c(F)c3)c3c(N)ncnc3n2C)cc1 [Example 514]
21 | 100 to 250 | 100 to 250 |  | C=C(C)C(=O)Nc1ccc(-c2c(-c3ccc(C(=O)N4CCCC4)cc3)c3c(N)ncnc3n2C)c(C2CC2)c1 [Example 520]
22 | < 100 |  | ≤ 100 | C=C(C)C(=O)Nc1ccc(-c2c(-c3ccc(Oc4nccc(C)n4)cc3)c3c(N)ncnc3n2C)c(CC)c1 [Example 521]
23 | < 100 | ≤ 100 |  | C=C(CN(C)C)C(=O)Nc1ccc(-c2c(-c3ccc(C(=O)N4CCCC4)cc3)c3c(N)ncnc3n2C)cc1 [Example 522]
